# Where a name gives a salt, the structure may show the parent alone.
# Assay: in vitro
# Details: rat, gh3-tre-luc cells, AC50 (uM) modified / 1000
row,Compound,CC50 at 24 h
1,O=C(O)c1cccc(/C=C2/C[C@@H]3[C@@H](/C=C/[C@@H](O)C4CCCCC4)[C@H](O)C[C@@H]3O2)c1 [Taprostene sodium salt],> 50 µM
2,CCSc1ccc2c(c1)N(CCCN1CCN(C)CC1)c1ccccc1S2 [Thiethylperazine malate],> 20 µM
3,CCOC(=O)C1CC(=O)C(=C(O)C2CC2)C(=O)C1 (stereo not shown) [Trinexapac-ethyl],> 90 µM
4,CCCCCNC(=N)N/N=C/c1c[nH]c2ccc(OC)cc12 [Tegaserod],> 50 µM
5,Cn1c(=O)c2c(ncn2CC2OCCO2)n(C)c1=O [Doxofylline],> 50 µM
6,CC(=O)NC1(c2cccc(F)c2)CCN(CC[C@@]2(c3ccc(Cl)c(Cl)c3)CN(c3ccccc3)C(=O)CO2)CC1 [SAR102779],6.31 µM
7,O=c1[nH]c(=O)[nH]c(=O)[nH]1 [Cyanuric acid],> 90 µM
8,CC(=O)CC(=O)Nc1ccccc1 [Acetoacetanilide],> 90 µM
9,CC(C)NCC(O)c1ccc(O)c(O)c1 (stereo not shown) [Isoproterenol hydrochloride],> 90 µM
10,CC1=CCC(=C(C)C)CC1 [Terpinolene],> 90 µM
11,CCCCCCCC/C=C\CCCCCCCC(=O)OCC(O)CO (stereo not shown) [Glyceryl monooleate],> 90 µM
12,O=S(=O)(O)CC(O)CCl (stereo not shown) [Sodium 3-chloro-2-hydroxypropane-1-sulfonate],> 90 µM
13,Nc1cccc([N+](=O)[O-])c1 [3-Nitroaniline],> 90 µM
14,COc1ccc(C(O)(c2cncnc2)C2CC2)cc1 (stereo not shown) [Ancymidol],> 90 µM
15,Clc1ccc(C(OCCN2CCCCC2)c2ccccc2)cc1 (stereo not shown) [Cloperastine hydrochloride],9.53 µM
16,"CCOC(=O)CC(=O)c1cc(F)c(Cl)nc1Cl [Ethyl 2,6-dichloro-5-fluoro-?-oxo-3-pyridinepropionate]",> 90 µM
17,CCOC(=O)c1ccccc1C(=C1C=C(Br)C(=O)C(Br)=C1)c1cc(Br)c(O)c(Br)c1 [Tetrabromophenolphthalein ethyl ester],42.7 µM
18,CC(C)(N)CO [2-Amino-2-methylpropan-1-ol],> 90 µM
19,"CC=C(C)C(=O)OCCC(C)CCC=C(C)C (stereo not shown) [3,7-Dimethyloct-6-en-1-yl 2-methylbut-2-enoate]",> 90 µM
20,"C[Si](C)(CCCN)O[Si](C)(C)CCCN [3,3'-(1,1,3,3-Tetramethyldisiloxane-1,3-diyl)dipropan-1-amine]",> 90 µM
21,CCCCCCCCCCCCN(CCCCCCCCCCCC)CCCCCCCCCCCC [Tridodecylamine],> 90 µM
22,C=CCOC(=O)c1ccccc1C(=O)OCC=C [Diallyl phthalate],> 90 µM
23,COC(=O)C(C)(C)C [Methyl pivalate],> 90 µM
24,N=C(N)NC(=O)Cc1c(Cl)cccc1Cl [Guanfacine hydrochloride],31.7 µM

row,Compound,CC50 at 24 h
1,Cn1c(NCCN(CCO)CCCc2ccc([N+](=O)[O-])cc2)cc(=O)n(C)c1=O [Nifekalant hydrochloride],> 50 µM
2,Cc1ccc([N+](=O)[O-])cc1S(=O)(=O)O [2-Methyl-5-nitrobenzenesulfonic acid],> 90 µM
3,O=C(O)P(=O)(O)O [Foscarnet trisodium],> 50 µM
4,CCCC(=O)OCCc1ccccc1 [2-Phenylethyl butanoate],> 90 µM
5,C[C@]12CC[C@H](O)CC1=CC[C@@H]1[C@@H]2CC[C@]2(C)C(=O)CC[C@@H]12 [Dehydroepiandrosterone],> 90 µM
6,CCCCCSCCCCC [Pentyl sulfide],> 90 µM
7,COc1ccc2c(c1OC)C(=O)O[C@@H]2[C@H]1c2c(cc3c(c2OC)OCO3)CCN1C [Noscapine],15 µM
8,O=C(O)c1cccc([N+](=O)[O-])c1 [3-Nitrobenzoic acid],> 90 µM
9,CCCCCCOC(=O)CCC [Hexyl butyrate],> 90 µM
10,CC1CS(=O)(=O)CCN1/N=C/c1ccc([N+](=O)[O-])o1 (stereo not shown) [Nifurtimox],8.46 µM
11,Clc1sc(Cl)c(Cl)c1Cl [Tetrachlorothiophene],> 90 µM
12,CC(C)=CC1C(C(=O)OC(C#N)c2cccc(Oc3ccccc3)c2)C1(C)C (stereo not shown) [Cyphenothrin],> 90 µM
13,CCN(CC)CCOc1ccc(-c2nc3cc(Cl)ccc3s2)cc1 [Halethazole hydrochloride],8.14 µM
14,CC1(C)CCC(C)(C)c2cc(C(=O)Nc3ccc(C(=O)O)cc3)ccc21 [AM580],66.2 µM
15,O=C(C[S+]([O-])Cc1ccco1)NC/C=C\COc1cc(CN2CCCCC2)ccn1 (stereo not shown) [Lafutidine],> 50 µM
16,CCOC(=O)NCCC[Si](OCC)(OCC)OCC [Ethyl [3-(triethoxysilyl)propyl]carbamate],> 90 µM
17,O=[N+]([O-])c1ccc(O)c2ncccc12 [Nitroxoline],4.94 µM
18,CN(C)[C@@H]1C(=O)C(C(=O)NCN2CCCC2)=C(O)[C@@]2(O)C(=O)C3=C(O)c4c(O)cccc4[C@@](C)(O)C3C[C@@H]12 (stereo partly shown) [Rolitetracycline hydrochloride],> 50 µM
19,CCC(C(N)=O)N1CCCC1=O (stereo not shown) [Etiracetam],> 50 µM
20,NC(=O)CC[C@@H]1NC(=O)[C@H](Cc2ccccc2)NC(=O)[C@H](Cc2ccc(O)cc2)NC(=O)[C@@H](N)CSSC[C@@H](C(=O)N2CCC[C@H]2C(=O)N[C@@H](CCCN=C(N)N)C(=O)NCC(N)=O)NC(=O)[C@H](CC(N)=O)NC1=O [Argipressin acetate],> 50 µM
21,Cc1cc(C)c(N=Nc2c(O)c(S(=O)(=O)O)cc3cc(S(=O)(=O)O)ccc23)cc1C [Ponceau 3R],> 6 µM
22,CCOC(=O)CCC(=O)O[C@H]1[C@H](O[C@@H]2[C@@H](C)[C@H](O[C@H]3C[C@@](C)(OC)[C@@H](O)[C@H](C)O3)[C@@H](C)C(=O)O[C@H](CC)[C@@](C)(O)[C@H](O)[C@@H](C)C(=O)[C@H](C)C[C@@]2(C)O)O[C@H](C)C[C@@H]1N(C)C [Erythromycin ethylsuccinate],> 50 µM
23,CCOC(=O)c1cccc(N)c1 [Ethyl 3-aminobenzoate methanesulfonic acid salt],> 50 µM
24,CCCC(=O)OCCC(C)C [Isopentyl butyrate],> 90 µM

row,Compound,CC50 at 24 h
1,C=C1/C(=C\C=C2/CCC[C@]3(C)[C@@H]([C@H](C)OCCC(C)(C)O)CC[C@@H]23)C[C@@H](O)C[C@@H]1O [Maxacalcitol],> 50 µM
2,CCCCCCC [Heptane],> 100 µM
3,CSC1=N[C@@](C)(c2ccccc2)C(=O)N1Nc1ccccc1 [Fenamidone],> 90 µM
4,CCCOC(=O)c1ccc(O)cc1 [Propylparaben],> 90 µM
5,O=C(NCNC(=O)NC1C(=O)NC(=O)N1CO)NC1C(=O)NC(=O)N1CO (stereo not shown) [Imidazolidinyl urea],> 90 µM
6,CC(C)c1ccc2ncccc2c1 [6-(1-Methylethyl)quinoline],> 90 µM
7,CN(C)CC[C@@H](c1ccc(Cl)cc1)c1ccccn1 [Dexchlorpheniramine hydrochloride],24.8 µM
8,NCC(O)c1ccc(O)cc1 (stereo not shown) [Octopamine hydrochloride],> 90 µM
9,O=c1cc(-c2ccccc2)oc2ccccc12 [Flavone],> 90 µM
10,CCOC(=O)N(C)N=O [N-Nitroso-N-methylurethane],> 90 µM
11,"CC1=C(O)C(=O)OC1C (stereo not shown) [4,5-Dimethyl-3-hydroxy-2,5-dihydrofuran-2-one]",> 90 µM
12,"c1ccc2[nH]nnc2c1 [1,2,3-Benzotriazole]",> 90 µM
13,COC(=O)c1sccc1S(=O)(=O)NC(=O)Nc1nc(C)nc(OC)n1 [Thifensulfuron-methyl],> 90 µM
14,CCC(C)(C)OC [tert-Amyl methyl ether],> 90 µM
15,"Nc1ncnc2c1ncn2[C@H]1CC[C@@H](CO)O1 [2',3'-Dideoxyadenosine]",> 90 µM
16,O=C(O)c1cc(C(=O)O)cc([N+](=O)[O-])c1 [5-Nitroisophthalic acid],> 90 µM
17,CC1(C)CCC[C@]2(C)[C@H]3CCO[C@]3(C)CC[C@@H]12 [(-)-Ambroxide],> 90 µM
18,NCC[C@H](O)C(=O)N[C@@H]1C[C@H](N)[C@@H](O[C@H]2O[C@H](CN)CC[C@H]2N)[C@H](O)[C@H]1O[C@H]1O[C@H](CO)[C@@H](O)[C@H](N)[C@H]1O [Arbekacin sulfate],> 50 µM
19,O=S(=O)(NS(=O)(=O)C(F)(F)F)C(F)(F)F [Triethylsulfonium bis(trifluoromethanesulfonyl)imide],> 90 µM
20,"O=[N+]([O-])c1ccc(Cl)cc1Cl [2,4-Dichloronitrobenzene]",> 90 µM
21,CCCOCCOCCOCCO [2-[2-(2-Propoxyethoxy)ethoxy]ethanol],> 90 µM
22,Cc1nc2sccn2c(=O)c1CCN1CCC(=C(c2ccc(F)cc2)c2ccc(F)cc2)CC1 [Ritanserin],28.7 µM
23,Clc1ccccc1-c1nc(-c2ccncc2)no1 [Pifexole],> 50 µM
24,c1ccsc1 [Thiophene],> 90 µM

# Same assay, conditions: rat, gh3-tre-luc cells, AC50 (uM) modified / 1000, Tox21_110001=Tox21_112872; viability, 1 nM T3 present, 24 h
row,Compound,CC50 at 24 h
1,CCN(CC)C(=O)[C@@H]1C=C2c3cccc4[nH]cc(c34)C[C@H]2N(C)C1 [Lysergide],> 200 µM

# Same assay, conditions: rat, gh3-tre-luc cells, AC50 (uM) modified / 1000, Tox21_110001=Tox21_113508; viability, 1 nM T3 present, 24 h
row,Compound,CC50 at 24 h
1,CCN(CC)C(=O)[C@@H]1C=C2c3cccc4[nH]cc(c34)C[C@H]2N(C)C1 [Lysergide],> 50 µM

# Same assay, conditions: rat, gh3-tre-luc cells, AC50 (uM) modified / 1000, Tox21_110001=Tox21_200094; viability, 1 nM T3 present, 24 h
row,Compound,CC50 at 24 h
1,C#CC(C)(C)O [2-Methyl-3-butyn-2-ol],> 90 µM

# Same assay, conditions: rat, gh3-tre-luc cells, AC50 (uM) modified / 1000, Tox21_110001=Tox21_200376; viability, 1 nM T3 present, 24 h
row,Compound,CC50 at 24 h
1,Nc1ccc(-c2ccccc2)cc1 [4-Biphenylamine],> 90 µM

# Same assay, conditions: rat, gh3-tre-luc cells, AC50 (uM) modified / 1000, Tox21_110001=Tox21_300420; viability, 1 nM T3 present, 24 h
row,Compound,CC50 at 24 h
1,O=C(Nc1ccccc1)c1ccccc1I [Benodanil],> 90 µM

# Same assay, conditions: rat, gh3-tre-luc cells, AC50 (uM) modified / 1000, Tox21_110001=Tox21_302651; viability, 1 nM T3 present, 24 h
row,Compound,CC50 at 24 h
1,C=CC(=O)OCCCCO [4-Hydroxybutyl prop-2-enoate],73.9 µM

# Same assay, conditions: rat, gh3-tre-luc cells, AC50 (uM) modified / 1000, Tox21_110001=Tox21_400042; viability, 1 nM T3 present, 24 h
row,Compound,CC50 at 24 h
1,OCCCBr [3-Bromo-1-propanol],> 90 µM
